Data as given in patent US8501816B2, “Antitussive compositions comprising memantine” (Cerecor, Inc., priority 2010, dated 2013).
Marks after values point to notes of the source that are not given here.

Tests used:
[1] = system: citric acid induced cough; test: Citric acid induced cough in conscious guinea pigs; details: for Mean ± sem cumulative coughs / ≧15 Cumulative coughs/total number of guinea pigs: potentially synergistic agents; for Effect of single agent on citric acid (0.01-0.3M) induced cough: oral, 60 minutes prior, memantine 3, guaifenesin 100, diphenhydramine 10, benzonatate 30, ambroxol 100 mg/kg; for Effect on cumulative number of coughs evoked by lower concentrations of citric acid (0.01-0.1 M): 30 mg/kg; for Cumulative numbers of cough, median, citric acid 0.01M / Cumulative numbers of cough, median, citric acid 0.1M / Cumulative numbers of cough, median, citric acid 0.3M / Effect on cumulative number of coughs evoked by citric acid (0.01-0.3M) compared to controls: 30 mg/kg intraperitoneally
Method: Male Hartley guinea pigs (200-700 g) were studied and all experiments were first approved by the institutional Animal Care and Use Committee.
Animals were placed in a transparent chamber (Buxco Research Systems, Wilmington, N.C.) with a continuous flow of air and exposed to increasing concentrations of citric acid (0.01 M-0.3 M) is delivered by an ultrasonic nebulizer generating aerosol particles of 3-6 μm diameter. Coughs were counted during a 5 minute nebulization period and over the subsequent 5 minutes with the assistance of sound and pressure monitoring from the chamber. Respiratory rate and tidal volume were monitored throughout via a calibrated pressure transducer (Emka Technologies, Falls Church, Va.).
Each of these drugs was administered orally in half-log increments (e.g. 3 mg/kg, 10 mg/kg, 30 mg/kg) in an unpaired experimental design (each animal received only 1 dose of drug). The drugs were administered 60 minutes prior to citric acid challenge, which consisted of 5 minute challenges with aerosols of increasing concentrations of citric acid (0.01-0.3M), with 5 minute intervals in between escalating doses of the tussive stimulus.

[2] = system: Caco-2 cells; test: Memantine in vitro intestinal permeability (Caco-2 cells); format: in vitro ADME; details: FIG. 12
[3] = system: freezing behavior during cued fear conditioning; test: Cued fear conditioning in mice; format: in vivo; details: diphenhydramine 20 mg/kg IP, p=0.061
Method: The effects of memantine on enhancing cognition were investigated with fear conditioning tests on mice. Specifically, the fear conditioning test exposed mice to a conditioned stimulus (a tone) and an unconditioned stimulus (a mild electric shock). The mice learned to associate the tone with the shock as reflected by freezing. After being adequately conditioned, the mice were administered memantine or a control (vehicle alone). […] Fear Conditioning: Fear conditioning mouse chambers (7''W×7''D×12''H; Coulbourne Instruments, […] Valley, Pa.) were housed in sound attenuating chambers. A camera was mounted on the ceiling of the chamber to capture mouse behavior (FreezeFrame software, Coulbourne Instruments, […] Valley, Pa.); data were analyzed by Freezeview software (Coulbourne Instruments, […] Valley, Pa.). Fear conditioning chambers were calibrated prior to each experiment to ensure that each chamber delivers the same shock intensity. […] Pavlovian fear conditioning refers to the learning of associations between a negative reinforcer (e.g., a mild electric foot shock/s), a novel context (e.g. a context) and/or a specific, neutral, cue (e.g., tone or white noise). To assess contextual and cued (tone) learning and memory, a standardized fear conditioning task developed for the evaluation of memory in rodents was used. Protocol: […] Cue-induced Conditioning Testing: Mice were tested for cued memory 48 hours after training. The cued conditioning test was conducted in an altered context (i.e., a different test chamber). […] Statistical Analysis: Data are represented as the mean and standard error to the mean. Data were analyzed by analysis of variance (ANOVA) followed by Fisher PLSD, or unpaired t-tests, when appropriate to test a planned comparison. An effect was considered significant if p<0.05. Statistical outliers that fell above or below two standard deviations from the mean were removed from the final analysis.

[4] = system: cough; details: cited from earlier work
[5] = Respiratory parameters during cough challenge; format: in vivo, guinea pig; details: 50 mg/kg; controls 117.7(±26.3)
Method: Using a similar chamber and nebulizer system, animals were treated first with aerosolized peptidase inhibitors (captopril 0.1 μM and thiorphan 0.1 μM, 5 minutes nebulization) to reduce bradykinin degradation and enhance tussive responses evoked by bradykinin (unpublished observations). Animals were then exposed to increasing concentrations of aerosolized bradykinin (0.1-3 mg/mL), again for 5 minute periods. Coughs are counted during this and the subsequent 5 minutes. Pressure changes within the chamber are used to monitor respiratory rate (Biopac Systems Inc, Goleta, Calif.).

[6] = Sedation and side effects observed in the cough studies; details: for Sedation (FIG. 20): 30 mg/kg intraperitoneally; for Animals with mild to moderate sedation: n=8; for Sedation: 50 mg/kg, precluded assessment of cough
[7] = system: citric acid evoked coughing; test: Microinjection of NMDA receptor antagonists into the central termination sites of the cough receptors; format: in vivo, guinea pig; details: anesthetized guinea pigs
[8] = in vivo, po; cited from earlier work

For `CC1CCC(C(C)C)C(O)C1` (stereo not shown) [Menthol], the “Mean ± sem cumulative coughs” value ([1]; 30 mg/kg po) was 21 ± 3, the “≧15 Cumulative coughs/total number of guinea pigs” value (from here on “≧15 Cumulative coughs/total number”) ([1]; 30 mg/kg po) was 3/3 and the “Mean ± sem cumulative coughs” value ([1]; 100 mg/kg po) was 11±2. For the same compound, the “≧15 Cumulative coughs/total number” value ([1]; 100 mg/kg po) was 1/7.

With `CC(O)CO` (stereo not shown) [propylene glycol] the “Effect as permeation enhancer on memantine Caco-2 permeability” value [2] was “ineffective”.

For `Nc1c(Br)cc(Br)cc1CN[C@H]1CC[C@H](O)CC1` [Ambroxol], the “Mean ± sem cumulative coughs” value ([1]; 100 mg/kg po) was 13 ± 4, the “≧15 Cumulative coughs/total number” value ([1]; 100 mg/kg po) was 2/6 and the “Effect of single agent on citric acid (0.01-0.3M) induced cough” value (“Effect of single agent on citric acid” for short) [1] was “failed to inhibit cough”.

In the case of `CN(C)CCOC(c1ccccc1)c1ccccc1` [Diphenhydramine], the “cue-induced fear conditioning, CS phase, vs vehicle-vehicle” value [3] was “strong trend toward decreased cue-induced fear conditioning”.

For `CCCCNc1ccc(C(=O)OCCOCCOCCOCCOCCOCCOCCOCCOCCOC)cc1` [Benzonatate], the “Mean ± sem cumulative coughs” value ([1]; 10 mg/kg po) was 24 ± 4, the “≧15 Cumulative coughs/total number” value ([1]; 10 mg/kg po) was 3/3 and the “Mean ± sem cumulative coughs” value ([1]; 30 mg/kg po) was 13 ± 4. The “≧15 Cumulative coughs/total number” value ([1]; 30 mg/kg po) was 2/5 and the “Effect of single agent on citric acid” value [1] was “failed to inhibit cough”.

In the case of `COc1ccc2c(c1)[C@]13CCCC[C@@H]1[C@H](C2)N(C)CC3` [Dextromethorphan], the “Efficacy in cough associated with upper respiratory tract infections” value ([4]; Bolser 2006) is given as “ineffective”, the mean breathing frequency [5] is given as 90.0(±13.7) breaths/min and the “Sedation (FIG. 20)” value [6] is given as “moderate to severe sedation in the majority of animals studied”. The “Animals with mild to moderate sedation” value ([6]; 30 mg/kg) was 62.5%, the Duration of sedation ([6]; 30 mg/kg, persisted throughout the citric acid challenge) was greater than 2 h and the Sedation [6] was “severe sedation”. For the same compound, the “Effect of microinjection on citric acid evoked coughing” value (from here on “Effect of microinjection”) [7] was “prevents citric acid evoked coughing”, the “Effect on cumulative number of coughs evoked by lower concentrations of citric acid (0.01-0.1 M)” value [1] was “significantly reduced the cumulative number of coughs” and the “Cumulative numbers of cough, median, citric acid 0.01M” value [1] was 0.0. The “Cumulative numbers of cough, median, citric acid 0.1M” value [1] was 0.5*, the “Cumulative numbers of cough, median, citric acid 0.3M” value [1] was 7.5 and the “Effect on cumulative number of coughs evoked by citric acid (0.01-0.3M) compared to controls” value [1] was “failed to produce a statistically significant reduction in cumulative coughs”.

In the case of `COc1ccccc1OCC(O)CO` (stereo not shown) [Guaifenesin, 3-(2-methoxyphenoxy)-1,2-propanediol], the “Mean ± sem cumulative coughs” value ([1]; 50 mg/kg po) was 30 ± 1, the “≧15 Cumulative coughs/total number” value ([1]; 50 mg/kg po) was 3/3 and the “Mean ± sem cumulative coughs” value ([1]; 100 mg/kg po) was 20 ± 5. The “≧15 Cumulative coughs/total number” value ([1]; 100 mg/kg po) was 3/4 and the “Effect of single agent on citric acid” value [1] was “failed to inhibit cough”.

With `NC(CCCP(=O)(O)O)C(=O)O` (stereo not shown) [AP5] the “Effect of microinjection” value [7] was “prevents citric acid evoked coughing”.

In the case of `N[C@@H](Cc1cc(CP(=O)(O)O)cc(-c2ccccc2Cl)c1)C(=O)O` [SDZ220581], the “Effect of microinjection” value [7] was “prevents citric acid evoked coughing”.

In the case of `CCCCCCCC/C=C\CCCCCCCC(=O)O` [oleic acid], the “Effect as permeation enhancer on memantine Caco-2 permeability” value [2] was “ineffective”.

For `CNC1(c2ccccc2Cl)CCCCC1=O` (stereo not shown) [Ketamine], the “Efficacy in chronic cough patients” value ([4]; Young et al.) is listed as “ineffective”, the mean breathing frequency [5] is listed as 92.3(±18.8) breaths/min and the “Sedation (FIG. 20)” value [6] is listed as “moderate to severe sedation in the majority of animals studied”. The “Time at which sedation reversed” value ([6]; 30 mg/kg, during the cough challenge) was 40-50 minutes post-injection, the “Animals with mild to moderate sedation” value ([6]; 30 mg/kg) was 87.5% and the Sedation [6] was “severe sedation”. The “Effect on cumulative number of coughs evoked by lower concentrations of citric acid (0.01-0.1 M)” value [1] was “not”, the “Cumulative numbers of cough, median, citric acid 0.01M” value [1] was 0.0 and the “Cumulative numbers of cough, median, citric acid 0.1M” value [1] was 1.5. The “Cumulative numbers of cough, median, citric acid 0.3M” value [1] was 11.0 and the “Effect on cumulative number of coughs evoked by citric acid (0.01-0.3M) compared to controls” value [1] was “failed to produce a statistically significant reduction in cumulative coughs”.

For `Cc1ccc(-c2nc3ccc(C)cn3c2CC(=O)N(C)C)cc1` [zolpidem], the orally bioavailable [8] is listed as “less than 70%”.
